Reference: US20040142944A1, “Compositions for nasal application” (priority 2001, published 2004)
Entries after “also recorded” stand apart in the source; their conditions may differ.

Assay: nasal administration of cGMP PDE inhibitors with added local anaesthetic
Format: in vivo

OCc1ccccc1 [benzyl alcohol]
local irritation of the nasal mucosa: led to local irritation of the nasal mucosa
ability to reduce or prevent the disadvantages occurring on nasal administration of cGMP PDE inhibitors (unpleasant nasal condition, eye-watering, increased nasal airway resistance, nasal blockage) (added to cGMP PDE inhibitor): unable to reduce or prevent the disadvantages; also recorded: unsuitable for overcoming the disadvantages
